For one experiment, the target named is Carbonic anhydrase 1 (Homo sapiens, UniProt P00915). In words: hCA Activity Assay.
The next experiment has as its target Carbonic anhydrase 2 (Homo sapiens, UniProt P00918). In words: hCA Activity Assay.

Molecules are shown by their SMILES.

Sequence of Carbonic anhydrase 1 (P00915 whole entry): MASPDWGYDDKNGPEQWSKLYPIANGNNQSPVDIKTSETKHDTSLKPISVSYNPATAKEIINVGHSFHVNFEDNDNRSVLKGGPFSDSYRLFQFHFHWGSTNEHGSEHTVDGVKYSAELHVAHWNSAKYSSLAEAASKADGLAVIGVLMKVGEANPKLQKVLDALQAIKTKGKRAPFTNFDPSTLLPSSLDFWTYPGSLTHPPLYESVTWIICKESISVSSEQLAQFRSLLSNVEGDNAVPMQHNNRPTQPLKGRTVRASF

The term Ki denotes a measure of affinity in units of concentration, obtained from inhibition or displacement. Low readings indicate higher affinity, high ones lower affinity. For `CC1(C)CC(=O)C2=C(C1)N(c1ccc(S(N)(=O)=O)cc1)C1=C(C(=O)CC(C)(C)C1)C2c1ccc(C#N)cc1` [4-(9-(4-Cyanophenyl)-3,3,6,6-tetramethyl-1,8-dioxo-1,2,3,4,5,6,7,8-octahydroacridine-10(9H)-yl)benzenesulfonamide (4)], the Ki was determined as 520 nM at Carbonic anhydrase 1 and 250 nM at Carbonic anhydrase 2.
For `CC1(C)CCC2=C(C1=O)C(c1ccc(Cl)cc1Cl)C1=C(CCC(C)(C)C1=O)N2c1ccc(S(N)(=O)=O)cc1` [4-(9-(2,4-Dichlorophenyl)-2,2,7,7-tetramethyl 1,8-dioxo 1,2,3,4,5,6,7,8-octahydroacridine 10(9H)-yl)benzenesulfonamide (12)] the same measures were 220 nM and 35 nM.
On to `CC1(C)CC(=O)C2=C(C1)N(c1ccc(S(N)(=O)=O)cc1)C1=C(C(=O)CC(C)(C)C1)C2c1ccccn1` [4-(3,3,6,6-tetramethyl-1,8-dioxo-9-(pyridin-2-yl)-1,2,3,4,5,6,7,8-octahydroacridine-10(9H)-yl)benzenesulfonamide (6)], for which the values for the inhibition constant (Ki) on Carbonic anhydrase 1 and at Carbonic anhydrase 2 were 55 nM and 130 nM, respectively.
For `COc1ccc(C2C3=C(CCC(C)(C)C3=O)N(c3ccc(S(N)(=O)=O)cc3)C3=C2C(=O)C(C)(C)CC3)cc1OC` [4-(9-(3,4-Dimethoxyphenyl)-2,2,7,7-tetramethyl 1,8-dioxo 1,2,3,4,5,6,7,8-octahydroacridine 10(9H)-yl)benzenesulfonamide (11)] the same measures were 205 nM and 120 nM.
For `COc1ccc(C2C3=C(CCCC3=O)N(c3ccc(S(N)(=O)=O)cc3)C3=C2C(=O)CCC3)cc1` [4-(9-(4-methoxyphenyl)-1,8-dioxo-1,2,3,4,5,6,7,8-octahydroacridine-10(9H)-yl)benzene sulfonamide (8)] the same measures were 8.5 nM and 7 nM.
Take `COc1ccc(C2C3=C(CC(C)(C)CC3=O)N(c3ccc(S(N)(=O)=O)cc3)C3=C2C(=O)CC(C)(C)C3)cc1` [4-(9-(4-Methoxyphenyl)-3,3,6,6-tetramethyl-1,8-dioxo-1,2,3,4,5,6,7,8-octahydroacridine-10(9H)-yl)benzenesulfonamide (5)]: the Ki on Carbonic anhydrase 1 stood at 75 nM; at Carbonic anhydrase 2 it was 150 nM.
The corresponding values for `CC1(C)CCC2=C(C1=O)C(c1ccc(C#N)cc1)C1=C(CCC(C)(C)C1=O)N2c1ccc(S(N)(=O)=O)cc1` [4-(9-(4-Cyanophenyl)-2,2,7,7-tetramethyl 1,8-dioxo 1,2,3,4,5,6,7,8-octahydroacridine 10(9H)-yl)benzenesulfonamide (9)] are 135 nM and 95 nM.
Take `COc1ccc(C2C3=C(CCCC3=O)N(c3ccc(S(N)(=O)=O)cc3)C3=C2C(=O)CCC3)c(OC)c1` [4-(9-(2,4-dimethoxyphenyl)-1,8-dioxo-1,2,3,4,5,6,7,8-octahydroacridine-10(9H)-yl) benzenesulfonamide (7)]: the Ki at Carbonic anhydrase 1 was 15 nM; on Carbonic anhydrase 2, 1.5 nM.
For `CC1(C)CCC2=C(C1=O)C(c1ccc(O)cc1)C1=C(CCC(C)(C)C1=O)N2c1ccc(S(N)(=O)=O)cc1` [4-(9-(4-Hydroxyphenyl)-2,2,7,7-tetramethyl 1,8-dioxo 1,2,3,4,5,6,7,8-octahydroacridine 10(9H)-yl)benzenesulfonamide (10)] the same measures were 45 nM and 125 nM.

The values are drawn from BindingDB's records for doi:10.3109/14756366.2011.599029 (Dumlupinar University, 2012).
